From US9695154B2, “Heteroaryl inhibitors of sumo activating enzyme” (MILLENNIUM PHARMACEUTICALS, INC., priority 2013, dated 2017)

Target: T1, recombinant human SAE enzyme (Homo sapiens, UniProt Q9UBT2)
T1 sequence (Q9UBT2 1-640): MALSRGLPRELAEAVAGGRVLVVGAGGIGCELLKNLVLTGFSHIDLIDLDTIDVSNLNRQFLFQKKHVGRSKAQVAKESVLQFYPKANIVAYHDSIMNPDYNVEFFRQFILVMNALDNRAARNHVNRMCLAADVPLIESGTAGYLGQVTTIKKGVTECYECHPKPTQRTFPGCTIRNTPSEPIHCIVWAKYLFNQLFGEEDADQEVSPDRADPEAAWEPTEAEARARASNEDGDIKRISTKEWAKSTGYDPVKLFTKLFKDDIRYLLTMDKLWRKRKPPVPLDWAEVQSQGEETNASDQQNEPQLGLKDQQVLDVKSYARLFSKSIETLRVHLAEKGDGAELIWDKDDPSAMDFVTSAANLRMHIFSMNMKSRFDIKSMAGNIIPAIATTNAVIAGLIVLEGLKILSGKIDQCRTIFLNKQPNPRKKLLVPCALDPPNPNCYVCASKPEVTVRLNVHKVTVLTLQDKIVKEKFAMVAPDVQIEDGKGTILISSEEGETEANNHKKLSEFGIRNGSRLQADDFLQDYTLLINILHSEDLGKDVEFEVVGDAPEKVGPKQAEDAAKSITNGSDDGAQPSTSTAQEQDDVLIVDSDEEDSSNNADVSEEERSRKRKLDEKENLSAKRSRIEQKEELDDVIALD
T1 sequence (Q9UBE0 1-346 partner): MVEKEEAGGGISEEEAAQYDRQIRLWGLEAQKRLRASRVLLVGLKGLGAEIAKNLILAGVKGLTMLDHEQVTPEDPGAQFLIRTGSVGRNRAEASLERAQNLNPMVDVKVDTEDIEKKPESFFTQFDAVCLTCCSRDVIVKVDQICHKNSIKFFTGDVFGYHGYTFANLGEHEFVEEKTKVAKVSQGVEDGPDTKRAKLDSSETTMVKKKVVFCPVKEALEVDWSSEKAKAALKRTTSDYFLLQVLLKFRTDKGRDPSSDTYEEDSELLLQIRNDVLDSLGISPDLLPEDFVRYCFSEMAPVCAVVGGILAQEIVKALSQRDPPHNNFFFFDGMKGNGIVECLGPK
Test: SAE HTRF Enzyme Assay
Type: biochemical
Conditions: for IC50: class symbols A-C; for inhibition at 0.111 µM: compound concentration 0.111 μM, read-out: Percent Inhibition
How it was run: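 SAE 0.11 nM; ATP 0.5 μM; Sumo-Flag 0.125 μM; Ubc9-GST 0.01 μM; 250 μM GSH, 5 mM MgCl2, pH 7.5. 105 min, 24° C. EDTA/KF stop plus Eu/APC antibodies, 2 h, TR-FRET. % inhibition or IC50.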

SMILES | IC50 | inhibition at 0.111 µM
NS(=O)(=O)OC[C@H]1C[C@@H](Nc2ncncc2C(=O)c2ccn(Cc3cccc(I)c3)c2)C[C@@H]1O [Compound I-68, {(1R,2S,4R)-2-hydroxy-4-[(5-{[1-(3-iodobenzyl)-1H-pyrrol-3-yl]carbonyl}pyrimidin-4-yl)amino]cyclopentyl}methyl sulfamate] | < 0.01 µM | 99%
NS(=O)(=O)OC[C@H]1C[C@@H](Nc2ncncc2C(=O)c2ccn(Cc3ccc(C(F)(F)F)cc3C(F)(F)F)n2)C[C@@H]1O [Compound I-69, [(1R,2S,4R)-4-{[5-({1-[2,4-bis(trifluoromethyl)benzyl]-1H-pyrazol-3-yl}carbonyl)pyrimidin-4-yl]amino}-2-hydroxycyclopentyl]methyl sulfamate] | 0.1 to 1 µM | 39%
NS(=O)(=O)OC[C@H]1C[C@@H](Nc2ncncc2C(=O)c2ccn(Cc3cc(Cl)ccn3)n2)[C@H](O)[C@@H]1O [Compound I-70, [(1R,2R,3S,4R)-4-{[5-({1-[(4-chloropyridin-2-yl)methyl]-1H-pyrazol-3-yl}carbonyl)pyrimidin-4-yI]amino}-2,3-dihydroxycyclopentyl]methyl sulfamate] | < 0.01 µM | 99%
Cc1cc(C(=O)c2cncnc2N[C@@H]2C[C@H](COS(N)(=O)=O)[C@@H](O)[C@@H]2F)cn1Cc1cccc(Br)c1 [Compound I-71, {(1R,2R,3R,4R)-4-[(5-{[1-(3-bromobenzyl)-5-methyl-1H-pyrrol-3-yl]carbonyl}pyrimidin-4-yl)amino]-3-fluoro-2-hydroxycyclopentyl}methyl sulfamate] | < 0.01 µM | 100%
NS(=O)(=O)OC[C@H]1C[C@@H](Nc2ncncc2C(=O)c2ccn(Cc3ccc(F)c(Br)c3)n2)C[C@@H]1O [Compound I-72, {(1R,2S,4R)-4-[(5-{[1-(3-bromo-4-fluorobenzyl)-1H-pyrazol-3-yl]carbonyl}pyrimidin-4-yl)amino]-2-hydroxycyclopentyl}methyl sulfamate] | < 0.01 µM | 100%
NS(=O)(=O)OC[C@H]1C[C@@H](Nc2ncncc2C(=O)c2ccn(Cc3cnc(C(F)(F)F)s3)c2)C[C@@H]1O [Compound I-73, [(1R,2S,4R)-2-hydroxy-4-({5-[(1-{[2-(trifluoromethyl)-1,3-thiazol-5-yl]methyl}-1H-pyrrol-3-yl)carbonyl]pyrimidin-4-yl}amino)cyclopentyl]methyl sulfamate] | < 0.01 µM | 94%
COC(C)(C)C#CCn1ccc(C(=O)c2cncnc2N[C@@H]2C[C@H](COS(N)(=O)=O)[C@@H](O)[C@@H]2F)c1 [Compound I-75, {(1R,2R,3R,4R)-3-fluoro-2-hydroxy-4-[(5-{[1-(4-methoxy-4-methylpent-2-yn-1-yl)-1H-pyrrol-3-yl]carbonyl}pyrimidin-4-yl)amino]cyclopentyl}methyl sulfamate] | 0.01 to 0.1 µM | 68%
CC(C)(c1ccccc1)n1ccc(C(=O)c2cncnc2N[C@@H]2C[C@H](COS(N)(=O)=O)[C@@H](O)C2)c1 [Compound I-76, {(1R,2S,4R)-2-hydroxy-4-[(5-{[1-(2-phenylpropan-2-yl)-1H-pyrrol-3-yl]carbonyl}pyrimidin-4-yl)amino]cyclopentyl}methyl sulfamate] | 0.01 to 0.1 µM | 80%
NS(=O)(=O)OC[C@H]1C[C@@H](Nc2ccncc2C(=O)c2ccn(Cc3ccc(Cl)c(Cl)c3)n2)C[C@@H]1O [Compound I-78, {(1R,2S,4R)-4-[(3-{[1-(3,4-dichlorobenzyl)-1H-pyrazol-3-yl]carbonyl}pyridin-4-yl)amino]-2-hydroxycyclopentyl}methyl sulfamate] | < 0.01 µM | 97%
Cn1cccc(Cn2ccc(C(=O)c3cncnc3N[C@@H]3C[C@H](COS(N)(=O)=O)[C@@H](O)C3)n2)c1=O [Compound I-80, [(1R,2S,4R)-2-hydroxy-4-{[5-({1-[(1-methyl-2-oxo-1,2-dihydropyridin-3-yl)methyl]-1H-pyrazol-3-yl}carbonyl)pyrimidin-4-yl]amino}cyclopentyl]methyl sulfamate] | < 0.01 µM | 96%
NS(=O)(=O)OC[C@H]1C[C@@H](Nc2ccncc2C(=O)c2ccn(Cc3cccc(Cl)c3)n2)[C@H](O)[C@@H]1O [Compound I-81, {(1R,2R,3S,4R)-4-[(3-{[1-(3-chlorobenzyl)-1H-pyrazol-3-yl]carbonyl}pyridin-4-yl)amino]-2,3-dihydroxycyclopentyl}methyl sulfamate] | < 0.01 µM | 98%
NS(=O)(=O)OC[C@H]1C[C@@H](Nc2ncncc2C(=O)c2ccn(CC3CCCCC3)n2)[C@H](O)[C@@H]1O [Compound I-82, {(1R,2R,3S,4R)-4-[(5-{[1-(cyclohexylmethyl)-1H-pyrazol-3-yl]carbonyl}pyrimidin-4-yl)amino]-2,3-dihydroxycyclopentyl}methyl sulfamate] | < 0.01 µM | 96%
NS(=O)(=O)OC[C@H]1C[C@@H](Nc2ccncc2C(=O)c2ccn(Cc3cccc(OC(F)(F)F)c3)c2)C[C@@H]1O [Compound I-83, [(1R,2S,4R)-2-Hydroxy-4-{[3-({1-[3-(trifluoromethoxy)benzyl]-1H-pyrrol-3-yl}carbonyl)pyridin-4-yl]amino}cyclopentyl]methyl sulfamate] | 0.01 to 0.1 µM | 88%
CC#Cc1cccc(Cn2ccc(C(=O)c3cncnc3N[C@@H]3C[C@H](COS(N)(=O)=O)[C@@H](O)C3)n2)c1 [Compound I-84, [(1R,2S,4R)-2-hydroxy-4-{[5-({1-[3-(prop-1-yn-1-yl)benzyl]-1H-pyrazol-3-yl}carbonyl)pyrimidin-4-yl]amino}cyclopentyl]methyl sulfamate] | < 0.01 µM | 95%
C#Cc1cccc(Cn2ccc(C(=O)c3cncnc3N[C@@H]3C[C@H](COS(N)(=O)=O)[C@@H](O)C3)n2)c1 [Compound I-85, {(1R,2S,4R)-4-[(5-{[1-(3-ethynylbenzyl)-1H-pyrazol-3-yl]carbonyl}pyrimidin-4-yl)amino]-2-hydroxycyclopentyl}methyl sulfamate] | < 0.01 µM | 98%
NS(=O)(=O)OC[C@H]1C[C@@H](Nc2ncncc2C(=O)c2ccn(Cc3ccc(C(F)F)o3)c2)[C@@H](F)[C@@H]1O [Compound I-87, [(1R,2R,3R,4R)-4-({5-[(1-{[5-(difluoromethyl)-2-furyl]methyl}-1H-pyrrol-3-yl)carbonyl]pyrimidin-4-yl}amino)-3-fluoro-2-hydroxycyclopentyl]methyl sulfamate] | < 0.01 µM | > 99%
NS(=O)(=O)OC[C@H]1C[C@@H](Nc2ncncc2C(=O)c2ccn(Cc3c(F)cc(F)cc3F)n2)[C@H](O)[C@@H]1O [Compound I-88, {(1R,2R,3S,4R)-2,3-dihydroxy-4-[(5-{[1-(2,4,6-trifluorobenzyl)-1H-pyrazol-3-yl]carbonyl}pyrimidin-4-yl)amino]cyclopentyl}methyl sulfamate] | < 0.01 µM | > 99%
NS(=O)(=O)OC[C@H]1C[C@@H](Nc2ncncc2C(=O)c2ccn(Cc3ccc(F)c(Cl)c3)n2)[C@H](O)[C@@H]1O [Compound I-89, {(1R,2R,3S,4R)-4-[(5-{[1-(3-chloro-4-fluorobenzyl)-1H-pyrazol-3-yl]carbonyl}pyrimidin-4-yl)amino]-2,3-dihydroxycyclopentyl}methyl sulfamate] | < 0.01 µM | 98%
